# Assay results from ChEMBL document CHEMBL1201861, “Genomics of Drug Sensitity in Cancer screening data, Wellcome Trust Sanger Institute”.
# Tests used:
# BC1 cell line = assay: SANGER: Inhibition of human BC-1 cell growth in a cell viability assay.; assay type: functional, cell-based
# BL-41 = assay: cells; assay type: functional, cell-based; conditions: Homo sapiens;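 further: growth inhibition of human BL-41 cells, read out with a cell viability assay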
# Description: SANGER: Inhibition of human BL-41 cell growth in a cell viability assay.
# LC-1F = assay: cells; assay type: functional, cell-based; conditions: Homo sapiens;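 further: growth inhibition of human LC-1F cells, read out with a cell viability assay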
# Description: SANGER: Inhibition of human LC-1F cell growth in a cell viability assay.
# P31-FUJ = assay: cells; assay type: functional, cell-based; conditions: Homo sapiens;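 further: growth inhibition of P31-FUJ cells, read out with a viability assay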
# Description: SANGER: Inhibition of human P31-FUJ cell growth in a cell viability assay.
# NCI-H889 = assay: cells; assay type: functional, cell-based; conditions: Homo sapiens;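 further: cell growth inhibition of the cell line, read out with a viability assay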
# Description: SANGER: Inhibition of human NCI-H889 cell growth in a cell viability assay.
# EW-22 = assay: cells; assay type: functional, cell-based; conditions: Homo sapiens;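 further: growth inhibition of the EW-22 cell line, measured with a cell viability readout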
# Description: SANGER: Inhibition of human EW-22 cell growth in a cell viability assay.
# SIG-M5 = assay: cells; assay type: functional, cell-based; conditions: Homo sapiens;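 further: cell viability assay read-out, measuring how strongly growth of cultured human SIG-M5 cells is inhibited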
# Description: SANGER: Inhibition of human SIG-M5 cell growth in a cell viability assay.
# SNU-C1 = assay: cells; assay type: functional, cell-based; conditions: Homo sapiens;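 further: growth inhibition of SNU-C1 human cells, read out by a cell viability assay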
# Description: SANGER: Inhibition of human SNU-C1 cell growth in a cell viability assay.
# NCI-H1436 = assay: cells; assay type: functional, cell-based; conditions: Homo sapiens;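 further: growth suppression of human NCI-H1436 cells, determined with a cell viability readout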
# Description: SANGER: Inhibition of human NCI-H1436 cell growth in a cell viability assay.
# NCI-H2141 = assay: cells; assay type: functional, cell-based; conditions: Homo sapiens;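 further: growth inhibition of human NCI-H2141 cells, read out with a cell viability assay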
# Description: SANGER: Inhibition of human NCI-H2141 cell growth in a cell viability assay.
# COR-L279 = assay: SANGER: Inhibition of human COR-L279 cell growth in a cell viability assay.; assay type: functional, cell-based
# GDM-1 = assay: cells; assay type: functional, cell-based; conditions: Homo sapiens;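 further: cell viability readout used to measure growth inhibition of human GDM-1 cells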
# Description: SANGER: Inhibition of human GDM-1 cell growth in a cell viability assay.
# BC-3 = assay: cells; assay type: functional, cell-based; conditions: Homo sapiens;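 further: cell viability assay measuring growth inhibition of human BC-3 cells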
# Description: SANGER: Inhibition of human BC-3 cell growth in a cell viability assay.
# LB996-RCC = assay: cells; assay type: functional, cell-based; conditions: Homo sapiens
# Description: SANGER: Inhibition of human LB996-RCC cell growth in a cell viability assay.
# SK-MM-2 = assay: cells; assay type: functional, cell-based; conditions: Homo sapiens;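 further: growth inhibition of human SK-MM-2 cells, read out with a cell viability assay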
# Description: SANGER: Inhibition of human SK-MM-2 cell growth in a cell viability assay.
# TE-15 = assay: cells; assay type: functional, cell-based; conditions: Homo sapiens;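 further: cell viability readout of growth inhibition in TE-15 cells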
# Description: SANGER: Inhibition of human TE-15 cell growth in a cell viability assay.
# LB647-SCLC = assay: cells; assay type: functional, cell-based; conditions: Homo sapiens;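 further: cell growth inhibition, read out by a viability assay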
# Description: SANGER: Inhibition of human LB647-SCLC cell growth in a cell viability assay.
# RPMI 8402 = assay: SANGER: Inhibition of human RPMI-8402 cell growth in a cell viability assay.; assay type: functional, cell-based
# Daudi = assay: cells; assay type: functional, cell-based; conditions: Homo sapiens;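 further: growth inhibition of Daudi cells, read out by a viability assay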
# Description: SANGER: Inhibition of human Daudi cell growth in a cell viability assay.
# RVH-421 = assay: cells; assay type: functional, cell-based; conditions: Homo sapiens
# Description: SANGER: Inhibition of human RVH-421 cell growth in a cell viability assay.
# SNU-387 = assay: cells; assay type: functional, cell-based; conditions: Homo sapiens
# Description: SANGER: Inhibition of human SNU-387 cell growth in a cell viability assay.
# SiHa = assay: cells; assay type: functional, cell-based; conditions: Homo sapiens;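 further: Viability-based readout of growth inhibition in SiHa cells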
# Description: SANGER: Inhibition of human SiHa cell growth in a cell viability assay.
# BXPC-3 = assay: cells; assay type: functional, cell-based; conditions: Homo sapiens;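 further: growth inhibition of human BxPC-3 cells, read out by a cell viability assay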
# Description: SANGER: Inhibition of human BxPC-3 cell growth in a cell viability assay.
# MeWo = assay: cells; assay type: functional, cell-based; conditions: Homo sapiens;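 further: growth inhibition of MeWo cells, determined by a cell viability readout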
# Description: SANGER: Inhibition of human Mewo cell growth in a cell viability assay.
# NCI-H2052 = assay: cells; assay type: functional, cell-based; conditions: Homo sapiens;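 further: growth inhibition of NCI-H2052 cells, read out with a cell viability assay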
# Description: SANGER: Inhibition of human NCI-H2052 cell growth in a cell viability assay.
# NCI-H1693 = assay: cells; assay type: functional, cell-based; conditions: Homo sapiens;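 further: growth inhibition of the human cell line, read out with a cell viability assay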
# Description: SANGER: Inhibition of human NCI-H1693 cell growth in a cell viability assay.
# PANC-08-13 = assay: cells; assay type: functional, cell-based; conditions: Homo sapiens
# Description: SANGER: Inhibition of human PANC-08-13 cell growth in a cell viability assay.
# HT-1080 = assay: cells; assay type: functional, cell-based; conditions: Homo sapiens
# Description: SANGER: Inhibition of human HT-1080 cell growth in a cell viability assay.
# MEL-JUSO = assay: cells; assay type: functional, cell-based; conditions: Homo sapiens;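 further: growth inhibition of human MEL-JUSO cells, read out with a cell viability assay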
# Description: SANGER: Inhibition of human MEL-JUSO cell growth in a cell viability assay.
# A2780 = assay: cells; assay type: functional, cell-based; conditions: Homo sapiens;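 further: growth inhibition of A2780 cells, read out with a cell viability assay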
# Description: SANGER: Inhibition of human A2780 cell growth in a cell viability assay.
# A-431 = assay: cells; assay type: functional, cell-based; conditions: Homo sapiens;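 further: growth inhibition of A-431 cells, determined with a cell viability read-out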
# Description: SANGER: Inhibition of human A431 cell growth in a cell viability assay.
# J82 = assay: cells; assay type: functional, cell-based; conditions: Homo sapiens;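 further: growth inhibition of J82 cells, read out with a cell viability assay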
# Description: SANGER: Inhibition of human J82 cell growth in a cell viability assay.
# KYSE-510 = assay: cells; assay type: functional, cell-based; conditions: Homo sapiens;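 further: cell viability readout used to measure how strongly growth of the cell line is suppressed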
# Description: SANGER: Inhibition of human KYSE-510 cell growth in a cell viability assay.
# CAL-72 = assay: cells; assay type: functional, cell-based; conditions: Homo sapiens;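 further: cell viability assay measuring inhibition of proliferation in the CAL-72 cell line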
# Description: SANGER: Inhibition of human CAL-72 cell growth in a cell viability assay.
# NCI-H1651 = assay: cells; assay type: functional, cell-based; conditions: Homo sapiens;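 further: Read-out is a cell viability assay, with IC50 expressing inhibition of NCI-H1651 cell growth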
# Description: SANGER: Inhibition of human NCI-H1651 cell growth in a cell viability assay.
# T98G = assay: cells; assay type: functional, cell-based; conditions: Homo sapiens;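 further: growth inhibition of T98G cells, read out by a cell viability assay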
# Description: SANGER: Inhibition of human T98G cell growth in a cell viability assay.
# NCI-H661 = assay: cells; assay type: functional, cell-based; conditions: Homo sapiens;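 further: cell viability assay read-out, IC50 being the concentration that inhibits growth of the cells by half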
# Description: SANGER: Inhibition of human NCI-H661 cell growth in a cell viability assay.
# OVCAR-3 = assay: cells; assay type: functional, cell-based; conditions: Homo sapiens;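 further: growth inhibition of human OVCAR-3 cells, determined by a cell viability assay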
# Description: SANGER: Inhibition of human OVCAR-3 cell growth in a cell viability assay.
# M059J = assay: cells; assay type: functional, cell-based; conditions: Homo sapiens;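 further: growth inhibition of M059J cells, read out with a cell viability assay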
# Description: SANGER: Inhibition of human M059J cell growth in a cell viability assay.
# SK-OV-3 = assay: cells; assay type: functional, cell-based; conditions: Homo sapiens;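 further: growth inhibition of SK-OV-3 human cells, read out with a cell viability assay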
# Description: SANGER: Inhibition of human SK-OV-3 cell growth in a cell viability assay.
# GP5d = assay: cells; assay type: functional, cell-based; conditions: Homo sapiens;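 further: growth inhibition of human GP5d cells, read out with a cell viability assay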
# Description: SANGER: Inhibition of human GP5d cell growth in a cell viability assay.
# UACC-893 = assay: cells; assay type: functional, cell-based; conditions: Homo sapiens
# Description: SANGER: Inhibition of human UACC-893 cell growth in a cell viability assay.
# KYSE-410 = assay: cells; assay type: functional, cell-based; conditions: Homo sapiens;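 further: growth inhibition of KYSE-410 cells, measured through a cell viability readout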
# Description: SANGER: Inhibition of human KYSE-410 cell growth in a cell viability assay.
# HT1197 = assay: cells; assay type: functional, cell-based, HT-1197; conditions: Homo sapiens
# Description: SANGER: Inhibition of human HT-1197 cell growth in a cell viability assay.
# JEG-3 = assay: cells; assay type: functional, cell-based; conditions: Homo sapiens;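 further: growth inhibition of human JEG-3 cells, read out with a cell viability assay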
# Description: SANGER: Inhibition of human JEG-3 cell growth in a cell viability assay.
# GAMG = assay: cells; assay type: functional, cell-based; conditions: Homo sapiens;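 further: cell growth inhibition measured by a viability assay in the GAMG human cell line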
# Description: SANGER: Inhibition of human GAMG cell growth in a cell viability assay.
# BFTC-905 = assay: cells; assay type: functional, cell-based; conditions: Homo sapiens
# Description: SANGER: Inhibition of human BFTC-905 cell growth in a cell viability assay.
# Capan-2 = assay: cells; assay type: functional, cell-based; conditions: Homo sapiens;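 further: Capan-2 cell growth inhibition, read out with a viability assay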
# Description: SANGER: Inhibition of human Capan-2 cell growth in a cell viability assay.
# COLO-680N = assay: cells; assay type: functional, cell-based; conditions: Homo sapiens;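 further: cell viability assay used to measure inhibition of COLO-680N cell growth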
# Description: SANGER: Inhibition of human COLO-680N cell growth in a cell viability assay.
# COLO-678 = assay: cells; assay type: functional, cell-based; conditions: Homo sapiens
# Description: SANGER: Inhibition of human COLO-678 cell growth in a cell viability assay.
# NCI-H1993 = assay: cells; assay type: functional, cell-based; conditions: Homo sapiens;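 further: growth inhibition of the cancer cell line, assessed with a cell viability assay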
# Description: SANGER: Inhibition of human NCI-H1993 cell growth in a cell viability assay.
# MDA-MB-231 = assay: cells; assay type: functional, cell-based; conditions: Homo sapiens
# Description: SANGER: Inhibition of human MDA-MB-231 cell growth in a cell viability assay.
# DoTc2-4510 = assay: cells; assay type: functional, cell-based; conditions: Homo sapiens
# OAW-28 = assay: cells; assay type: functional, cell-based; conditions: Homo sapiens;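 further: growth inhibition of OAW-28 cells, read out with a cell viability assay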
# Description: SANGER: Inhibition of human OAW-28 cell growth in a cell viability assay.
# DOK = assay: cells; assay type: functional, cell-based; conditions: Homo sapiens;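 further: cell viability assay read-out, values reflect inhibition of cell growth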
# Description: SANGER: Inhibition of human DOK cell growth in a cell viability assay.
# SK-MES-1 = assay: cells; assay type: functional, cell-based; conditions: Homo sapiens;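 further: growth inhibition of human SK-MES-1 cells, read out with a cell viability assay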
# Description: SANGER: Inhibition of human SK-MES-1 cell growth in a cell viability assay.
# EGI-1 = assay: cells; assay type: functional, cell-based; conditions: Homo sapiens;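 further: cell viability readout used to gauge growth inhibition of EGI-1 cells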
# Description: SANGER: Inhibition of human EGI-1 cell growth in a cell viability assay.
# NCI-H2405 = assay: cells; assay type: functional, cell-based; conditions: Homo sapiens;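 further: growth inhibition of the human cell line, read out with a cell viability assay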
# Description: SANGER: Inhibition of human NCI-H2405 cell growth in a cell viability assay.
# SAS = assay: cells; assay type: functional, cell-based; conditions: Homo sapiens;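 further: growth inhibition of SAS cells, read out with a cell viability assay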
# Description: SANGER: Inhibition of human SAS cell growth in a cell viability assay.
# MKN-1 = assay: cells; assay type: functional, cell-based; conditions: Homo sapiens;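 further: growth inhibition of human MKN1 cells, read out by a cell viability measurement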
# Description: SANGER: Inhibition of human MKN1 cell growth in a cell viability assay.
# G-402 = assay: cells; assay type: functional, cell-based; conditions: Homo sapiens
# Description: SANGER: Inhibition of human G-402 cell growth in a cell viability assay.
# NCI-N87 = assay: cells; assay type: functional, cell-based; conditions: Homo sapiens;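 further: growth inhibition of human NCI-N87 cells, read out with a cell viability assay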
# Description: SANGER: Inhibition of human NCI-N87 cell growth in a cell viability assay.
# MHH-ES-1 = assay: cells; assay type: functional, cell-based; conditions: Homo sapiens
# Description: SANGER: Inhibition of human MHH-ES-1 cell growth in a cell viability assay.
# MKN-45 = assay: cells; assay type: functional, cell-based; conditions: Homo sapiens
# Description: SANGER: Inhibition of human MKN45 cell growth in a cell viability assay.
# SW1573 = assay: cells; assay type: functional, cell-based; conditions: Homo sapiens
# Description: SANGER: Inhibition of human SW1573 cell growth in a cell viability assay.
compound,measurement,setting,value
Cc1[nH]c(/C=C2\C(=O)Nc3ccc(S(=O)(=O)Cc4c(Cl)cccc4Cl)cc32)c(C)c1C(=O)N1CCC[C@@H]1CN1CCCC1 [PHA-665752],IC50,BC1 cell line,> 2000 nM
same,IC50,BL-41,> 2000 nM
same,IC50,LC-1F,> 2000 nM
same,IC50,P31-FUJ,> 2000 nM
same,IC50,NCI-H889,> 2000 nM
same,IC50,EW-22,> 2000 nM
same,IC50,SIG-M5,> 2000 nM
same,IC50,SNU-C1,> 2000 nM
same,IC50,NCI-H1436,> 2000 nM
same,IC50,NCI-H2141,> 2000 nM
same,IC50,COR-L279,> 2000 nM
same,IC50,GDM-1,> 2000 nM
same,IC50,BC-3,> 2000 nM
same,IC50,LB996-RCC,> 2000 nM
same,IC50,SK-MM-2,> 2000 nM
same,IC50,TE-15,> 2000 nM
same,IC50,LB647-SCLC,> 2000 nM
same,IC50,RPMI 8402,> 2000 nM
same,IC50,Daudi,> 2000 nM
CCCS(=O)(=O)Nc1ccc(F)c(C(=O)c2c[nH]c3ncc(Cl)cc23)c1F [PLX-4720],IC50,RVH-421,868 nM
same,IC50,SNU-387,> 10000 nM
same,IC50,SiHa,> 10000 nM
same,IC50,BXPC-3,> 10000 nM
same,IC50,MeWo,> 10000 nM
same,IC50,NCI-H2052,> 10000 nM
same,IC50,NCI-H1693,> 10000 nM
same,IC50,PANC-08-13,> 10000 nM
same,IC50,HT-1080,6110 nM
same,IC50,MEL-JUSO,> 10000 nM
same,IC50,A2780,> 10000 nM
same,IC50,A-431,> 10000 nM
same,IC50,J82,> 10000 nM
same,IC50,KYSE-510,> 10000 nM
same,IC50,CAL-72,6450 nM
same,IC50,EW-22,> 10000 nM
same,IC50,NCI-H1651,> 10000 nM
same,IC50,T98G,> 10000 nM
same,IC50,NCI-H661,> 10000 nM
same,IC50,OVCAR-3,> 10000 nM
same,IC50,M059J,> 10000 nM
same,IC50,SK-OV-3,> 10000 nM
same,IC50,GP5d,> 10000 nM
same,IC50,UACC-893,> 10000 nM
same,IC50,KYSE-410,> 10000 nM
same,IC50,HT1197,> 10000 nM
same,IC50,JEG-3,> 10000 nM
same,IC50,GAMG,> 10000 nM
same,IC50,BFTC-905,> 10000 nM
same,IC50,Capan-2,> 10000 nM
same,IC50,COLO-680N,> 10000 nM
same,IC50,COLO-678,> 10000 nM
same,IC50,NCI-H1993,> 10000 nM
same,IC50,MDA-MB-231,> 10000 nM
same,IC50,DoTc2-4510,> 10000 nM
same,IC50,OAW-28,> 10000 nM
same,IC50,DOK,> 10000 nM
same,IC50,SK-MES-1,> 10000 nM
same,IC50,EGI-1,> 10000 nM
same,IC50,NCI-H2405,> 10000 nM
same,IC50,LB996-RCC,> 10000 nM
same,IC50,SAS,> 10000 nM
same,IC50,MKN-1,> 10000 nM
same,IC50,G-402,> 10000 nM
same,IC50,NCI-N87,> 10000 nM
same,IC50,MHH-ES-1,> 10000 nM
same,IC50,MKN-45,> 10000 nM
same,IC50,SW1573,> 10000 nM
C[C@]1(c2nc3c(C(N)=O)cccc3[nH]2)CCCN1 [VELIPARIB],IC50,RVH-421,> 5000 nM
same,IC50,SNU-387,> 5000 nM
same,IC50,SiHa,> 5000 nM
same,IC50,BXPC-3,> 5000 nM
same,IC50,MeWo,> 5000 nM
same,IC50,NCI-H2052,> 5000 nM
same,IC50,NCI-H1693,> 5000 nM
same,IC50,PANC-08-13,> 5000 nM
same,IC50,HT-1080,> 5000 nM
same,IC50,MEL-JUSO,> 5000 nM
same,IC50,A2780,> 5000 nM
same,IC50,A-431,> 5000 nM
same,IC50,J82,> 5000 nM
same,IC50,KYSE-510,> 5000 nM
same,IC50,CAL-72,> 5000 nM
same,IC50,EW-22,> 5000 nM
same,IC50,NCI-H1651,> 5000 nM
same,IC50,T98G,> 5000 nM
same,IC50,NCI-H661,> 5000 nM
same,IC50,OVCAR-3,> 5000 nM
same,IC50,M059J,> 5000 nM
same,IC50,SK-OV-3,> 5000 nM
same,IC50,GP5d,> 5000 nM
same,IC50,UACC-893,> 5000 nM
same,IC50,KYSE-410,> 5000 nM
same,IC50,HT1197,> 5000 nM
same,IC50,JEG-3,> 5000 nM
same,IC50,GAMG,> 5000 nM
same,IC50,BFTC-905,> 5000 nM
same,IC50,Capan-2,> 5000 nM
same,IC50,COLO-680N,> 5000 nM
same,IC50,COLO-678,> 5000 nM
same,IC50,NCI-H1993,> 5000 nM
same,IC50,MDA-MB-231,> 5000 nM
same,IC50,DoTc2-4510,> 5000 nM
same,IC50,OAW-28,> 5000 nM
same,IC50,DOK,> 5000 nM
same,IC50,SK-MES-1,> 5000 nM
same,IC50,EGI-1,> 5000 nM
same,IC50,NCI-H2405,> 5000 nM
same,IC50,SAS,> 5000 nM
same,IC50,MKN-1,> 5000 nM
same,IC50,G-402,> 5000 nM
same,IC50,NCI-N87,> 5000 nM
same,IC50,MHH-ES-1,> 5000 nM
same,IC50,MKN-45,> 5000 nM
same,IC50,SW1573,> 5000 nM
CC[C@]1(O)C[C@@H]2CN(CCc3c([nH]c4ccccc34)[C@@](C(=O)OC)(c3cc4c(cc3OC)N(C)[C@H]3[C@@](O)(C(=O)OC)[C@H](OC(C)=O)[C@]5(CC)C=CCN6CC[C@]43[C@@H]65)C2)C1 [VINBLASTINE],IC50,RVH-421,7.25 nM
same,IC50,SNU-387,11.4 nM
same,IC50,SiHa,> 100 nM
same,IC50,BXPC-3,8.01 nM
same,IC50,MeWo,9.13 nM
same,IC50,NCI-H2052,24.6 nM
same,IC50,NCI-H1693,78.2 nM
same,IC50,PANC-08-13,61.5 nM
same,IC50,HT-1080,4.23 nM
same,IC50,MEL-JUSO,17.5 nM
same,IC50,A2780,4.61 nM
same,IC50,A-431,> 100 nM
same,IC50,J82,68.5 nM
same,IC50,KYSE-510,5.87 nM
same,IC50,CAL-72,> 100 nM
same,IC50,EW-22,29.3 nM
same,IC50,NCI-H1651,23 nM
same,IC50,T98G,11.4 nM
same,IC50,NCI-H661,8.05 nM
same,IC50,OVCAR-3,46.9 nM
same,IC50,M059J,15.1 nM
same,IC50,SK-OV-3,> 100 nM
same,IC50,GP5d,4.67 nM
same,IC50,UACC-893,98.3 nM
same,IC50,KYSE-410,9.3 nM
same,IC50,HT1197,99.8 nM
same,IC50,JEG-3,12.5 nM
same,IC50,GAMG,19.4 nM
same,IC50,BFTC-905,3.77 nM
same,IC50,Capan-2,> 100 nM
same,IC50,COLO-680N,74.7 nM
same,IC50,COLO-678,> 100 nM
same,IC50,NCI-H1993,> 100 nM
same,IC50,MDA-MB-231,44.6 nM
same,IC50,DoTc2-4510,16.5 nM
same,IC50,OAW-28,40.7 nM
same,IC50,DOK,4.2 nM
same,IC50,SK-MES-1,8.64 nM
same,IC50,EGI-1,10.8 nM
same,IC50,NCI-H2405,> 100 nM
same,IC50,SAS,28.1 nM
same,IC50,MKN-1,10.1 nM
same,IC50,G-402,17.6 nM
same,IC50,NCI-N87,5.67 nM
same,IC50,MHH-ES-1,5.13 nM
same,IC50,MKN-45,48.4 nM
same,IC50,SW1573,33.2 nM
